Source: ChEMBL document CHEMBL1148793, “Influence of conformation on GRIND-based three-dimensional quantitative structure-activity relationship (3D-QSAR)” (J Med Chem, 2007)

Each molecule was assayed against T1, Lanosterol synthase (Homo sapiens, UniProt P48449) (assay: Inhibition of oxidosqualene cyclase).
T1 sequence (P48449 whole entry): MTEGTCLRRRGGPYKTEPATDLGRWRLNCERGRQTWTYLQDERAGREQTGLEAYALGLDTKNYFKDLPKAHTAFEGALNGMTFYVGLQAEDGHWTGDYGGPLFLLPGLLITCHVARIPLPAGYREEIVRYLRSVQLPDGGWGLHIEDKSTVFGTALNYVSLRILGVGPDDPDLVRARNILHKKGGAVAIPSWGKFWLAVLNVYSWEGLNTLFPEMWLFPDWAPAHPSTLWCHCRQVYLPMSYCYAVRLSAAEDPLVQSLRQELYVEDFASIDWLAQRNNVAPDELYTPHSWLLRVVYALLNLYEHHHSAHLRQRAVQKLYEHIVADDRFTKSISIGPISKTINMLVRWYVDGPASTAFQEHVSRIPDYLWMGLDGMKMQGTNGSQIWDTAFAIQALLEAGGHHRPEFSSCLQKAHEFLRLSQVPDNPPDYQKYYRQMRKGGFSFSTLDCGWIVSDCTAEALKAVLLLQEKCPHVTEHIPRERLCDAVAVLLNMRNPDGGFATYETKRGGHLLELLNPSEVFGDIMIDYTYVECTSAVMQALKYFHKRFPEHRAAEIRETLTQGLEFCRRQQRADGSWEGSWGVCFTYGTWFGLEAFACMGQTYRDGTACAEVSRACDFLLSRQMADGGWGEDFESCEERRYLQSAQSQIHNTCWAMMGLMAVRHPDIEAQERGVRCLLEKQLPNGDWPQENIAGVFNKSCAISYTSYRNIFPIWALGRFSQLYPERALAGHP

SMILES | IC50 [nM]
CN(C/C=C/COc1ccc(C(=O)c2ccc(Br)cc2)cn1)C1CC1 | 19.1
CN(CCCCCCOc1ccc(C(=O)c2ccc(Br)cc2)cc1)CC1CC1 | 31.6
C=CCN(C)CCCCCCOc1ccc2c(c1)S(=O)(=O)C=C2c1ccc(Br)cc1 | 7.76
C=CCN(C)CCCCCCOc1ccc2c(c1)c(C)nn2C | 240
